According to patent US20080119471A1, “Piperazine urea derivatives for the treatment of endometriosis” (priority 2004, published 2008):

T1: human CCR1 (Homo sapiens, UniProt P32246)
T1 sequence (P32246 1-355): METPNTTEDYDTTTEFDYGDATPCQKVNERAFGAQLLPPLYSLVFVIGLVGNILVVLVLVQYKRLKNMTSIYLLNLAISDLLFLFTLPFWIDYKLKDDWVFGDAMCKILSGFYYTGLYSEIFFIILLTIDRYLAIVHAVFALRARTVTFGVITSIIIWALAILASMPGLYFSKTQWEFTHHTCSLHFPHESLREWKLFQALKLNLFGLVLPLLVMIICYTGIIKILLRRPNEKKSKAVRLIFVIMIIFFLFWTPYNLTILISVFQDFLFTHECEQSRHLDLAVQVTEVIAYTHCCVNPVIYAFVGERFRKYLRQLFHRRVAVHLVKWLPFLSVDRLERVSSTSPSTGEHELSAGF

B1: MIP-1β: human chemokine that binds human CCR1 with low affinity (protein, UniProt P13236 24-92, looked up)
C-C motif chemokine 4: APMGSDPPTACCFSYTARKLPRNFVVDYYETSSLCSQPAVVFQTKRSKQVCADPSESWVQEYVYDLELN

molecular target: T1, human CCR1; assay: In vitro assay for CCR1 receptor antagonists: competition with 125I-MIP-1α or 125I-RANTES on 293MR cells; format: binding; parameters: expressed in transfected cells; details: Table 2
Protocol: Human CCR1 cDNA was provided through collaboration with Dr. Stephen Peiper of the University of Louisville, Ky. […] The plasmid also contained hygromycin and puromycin resistance genes. Calcium phosphate transfection standard protocols were used to insert the plasmid into the HEK293 cells. Cells were selected for stable expression of CCR1 using hygromycin and puromycin selection.
• 130 mM NaCl, 5 mM KCl, 1 mM MnCl2, 50 mM Tris, 30 μg/ml bacitracin, 0.1% BSA, pH 7.4.
The stock solution of the compounds was 1 mM in 100% DMSO. […] A serial 1:3 dilution from the highest concentration was made with assay buffer. Six concentrations of each compound were usually being screened to generate a dose curve from which the Ki value was determined.
Assays were performed in 96-well v-bottom microtiter plates in a total volume of 100 μl. […] The cells were washed once in PBS and resuspended in the assay buffer to about 1.1×10^5 cells/mL.
The radioactivities in each well were determined by scintillation counting following addition of 50 μl of scintillation fluid.
The nonspecific binding was defined by the binding in the presence of 100 nM of unlabeled MIP-1α or RANTES.
The dose curves of each compound with 6 concentration points were generated and IC50 values were determined by fitting the data to the log-logit equation (linear) with an EXCEL spread-sheet.

| Molecule | Ki [nM] |
| --- | --- |
| O=C(COc1ccc(Cl)cc1)N1CCN(Cc2ccc(F)cc2)C(C(F)(F)F)C1 (stereo not drawn) [compound 37] | 148 |
| CCN(C)C(C)c1cc(Cl)ccc1OCC(=O)N1C[C@@H](C)N(Cc2ccc(F)cc2)C[C@@H]1C (stereo partly drawn) [compound 28] | 18 |
| C[C@@H]1CN(C(=O)COc2ccc(Cl)cc2C(N)=O)[C@@H](C)CN1Cc1ccc(F)cc1 [compound 47] | 3 |
| C[C@@H]1CN(C(=O)COc2ccc(Cl)cc2CNC(N)=O)[C@@H](C)CN1Cc1ccc(F)cc1 [compound 14] | 2 |
| C[C@@H]1CN(C(=O)COc2ccc(Cl)cc2NCc2ccccc2)[C@@H](C)CN1Cc1ccc(F)cc1 [compound 17] | 42 |
| C[C@@H]1CN(Cc2ccc(F)cc2)[C@@H](CC#N)CN1C(=O)COc1ccc(Cl)cc1 [compound 48] | 38 |
| Cc1cc(O)cc(OCC(=O)N2C[C@H](C)N(Cc3ccc(F)cc3)C[C@H]2C)c1 [compound 33] | 5 |
| CC(=O)Nc1cc(Cl)ccc1OCC(=O)N1CCN(Cc2ccc(F)cc2)CC1C (stereo not drawn) [compound 19] | 5 |
| C=CC(O)CC1CN(Cc2ccc(F)cc2)CCN1C(=O)COc1ccc(Cl)cc1 (stereo not drawn) [compound 36] | 172 |
| C[C@@H]1CN(C(=O)COc2ccc(Cl)cc2NS(C)(=O)=O)[C@@H](C)CN1Cc1ccc(F)cc1 [compound 24] | 6 |
| COC(=O)c1ccc(OC)cc1OCC(=O)N1C[C@@H](C)N(Cc2ccc(F)cc2)C[C@@H]1C [compound 34] | 31 |
| CCC1CN(Cc2ccc(F)cc2)CCN1C(=O)COc1ccc(Cl)cc1 (stereo not drawn) [compound 44] | 15 |
| CC(c1cc(Cl)ccc1OCC(=O)N1C[C@@H](C)N(Cc2ccc(F)cc2)C[C@@H]1C)n1ccnc1 (stereo partly drawn) [compound 29] | 6 |
| COCC(=O)Nc1cc(Cl)ccc1OCC(=O)N1C[C@@H](C)N(Cc2ccc(F)cc2)C[C@@H]1C [compound 22] | 3 |
| C[C@@H]1CN(C(=O)COc2ccc3ccc(=O)oc3c2)[C@@H](C)CN1Cc1ccc(F)cc1 [compound 39] | 18 |
| CC1CN(Cc2ccc(F)cc2)CCN1C(=O)COc1ccc(Cl)c([N+](=O)[O-])c1 (stereo not drawn) [compound 16] | 21 |
| COC(=O)CCC(=O)Nc1cc(Cl)ccc1OCC(=O)N1C[C@@H](C)N(Cc2ccc(F)cc2)C[C@@H]1C [compound 23] | 5 |

| Molecule | Ki [nM] |
| --- | --- |
| CCC[C@@H]1CN(Cc2ccc(F)cc2)CCN1C(=O)COc1ccc(Cl)cc1 [compound 45] | 75 |
| C[C@@H]1CN(C(=O)CC(NS(C)(=O)=O)c2ccc(Cl)cc2)[C@@H](C)CN1Cc1ccc(F)cc1 (stereo partly drawn) [compound 43] | 32 |
| CC(=O)NCC(CC(=O)N1C[C@@H](C)N(Cc2ccc(F)cc2)C[C@@H]1C)c1ccc(Cl)cc1 (stereo partly drawn) [compound 42] | 26 |
| CCCC(C)Nc1cc(Cl)ccc1OCC(=O)N1C[C@@H](C)N(Cc2ccc(F)cc2)C[C@@H]1C (stereo partly drawn) [compound 18] | 87 |
| C[C@@H]1CN(C(=O)COc2cccc(C#N)c2)[C@@H](C)CN1Cc1ccc(F)cc1 [compound 32] | 68 |
| C[C@@H]1CN(C(=O)COc2ccc(Cl)cc2NC(=O)CNC(N)=O)[C@@H](C)CN1Cc1ccc(F)cc1 [compound 27] | 2 |
| C[C@@H]1CN(C(=O)COc2ccc(Cl)cc2NC(=O)CN)[C@@H](C)CN1Cc1ccc(F)cc1 [compound 26] | 1 |
| C[C@@H]1CN(C(=O)CC(CN)c2ccc(Cl)cc2)[C@@H](C)CN1Cc1ccc(F)cc1 (stereo partly drawn) [compound 41] | 56 |
| O=C(COc1ccc(Cl)cc1)N1CCN(Cc2ccc(F)cc2)CC12CC2 [compound 46] | 74 |
| CC1CN(C(=O)COc2ccc(Cl)cc2N)C(C)CN1Cc1ccc(F)cc1 (stereo not drawn) [compound 15] | 9 |
| CCCC(=O)Nc1cc(Cl)ccc1OCC(=O)N1C[C@@H](C)N(Cc2ccc(F)cc2)C[C@@H]1C [compound 20] | 7 |
| CC(C)C(=O)Nc1cc(Cl)ccc1OCC(=O)N1C[C@@H](C)N(Cc2ccc(F)cc2)C[C@@H]1C [compound 21] | 13 |
| C[C@@H]1CN(C(=O)COc2ccc(Cl)cc2C(=O)NCCN)[C@@H](C)CN1Cc1ccc(F)cc1 [compound 30] | 9 |
| C[C@@H]1CN(Cc2ccc(F)cc2)[C@@H](CN2CCOCC2)CN1C(=O)COc1ccc(Cl)cc1 [compound 49] | 109 |
| CC(=O)Nc1ccccc1OCC(=O)N1CCN(Cc2ccc(F)cc2)CC1C (stereo not drawn) [compound 31] | 106 |
| C[C@@H]1CN(C(=O)COc2ccc(Cl)cc2N2C(=O)c3ccccc3C2=O)[C@@H](C)CN1Cc1ccc(F)cc1 [compound 40] | 64 |
| CC(O)C1CN(Cc2ccc(F)cc2)CCN1C(=O)COc1ccc(Cl)cc1 (stereo not drawn) [compound 35] | 13 |

molecular target: T1, human CCR1; assay: not given; details: result in words; cited from earlier work

| Molecule | signalling through human CCR1 |
| --- | --- |
| MCP-1: human chemokine that binds human CCR1 with low affinity; a ligand for CCR2 | neither ligand is able to signal |
| B1 | neither ligand is able to signal |
